Measured values taken from ChEMBL document CHEMBL1201862, “PubChem BioAssay data set” (2004).
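Results reflect a 48-hour exposure of cells in 96-well plates to compound at five concentrations. The concentration for 50% growth inhibition is given as GI50.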 Activity calls are given as the source filed them. No stated cut-off is given here; in the data, active = GI50 up to about 1.1 µM and inactive = higher.

Legend:
Experiment in all cases: inhibition of tumour cell growth, NCI panel, 48 h
SK-MEL-5 = test system: SK-MEL-5
Hs-578T = test system: Hs-578T
SK-MEL-2 = test system: SK-MEL-2
CCRF-CEM = test system: CCRF-CEM
SF-268 = test system: SF-268
NCI-H522 = test system: NCI-H522
MDA-MB-435 = test system: MDA-MB-435
HCC 2998 = test system: HCC 2998
OVCAR-3 = test system: OVCAR-3
RXF 393 = test system: RXF 393
SK-OV-3 = test system: SK-OV-3
HCT-15 = test system: HCT-15
SF-295 = test system: SF-295
EKVX = test system: EKVX
HOP-62 = test system: HOP-62
MDA-MB-231 = test system: MDA-MB-231
RPMI-8226 = test system: RPMI-8226
MOLT-4 = test system: MOLT-4
SF-539 = test system: SF-539
K562 = test system: K562
UO-31 = test system: UO-31
A549 = test system: A549
NCI/ADR-RES = test system: NCI/ADR-RES
OVCAR-8 = test system: OVCAR-8
LOX IMVI = test system: LOX IMVI
CAKI-1 = test system: CAKI-1
A498 = test system: A498
NCI-H226 = test system: NCI-H226
SN12C = test system: SN12C
UACC-62 = test system: UACC-62
SNB-75 = test system: SNB-75
SR = test system: SR
Malme-3M = test system: Malme-3M
OVCAR-4 = test system: OVCAR-4
T47D = test system: T47D
HL-60 = test system: HL-60
HT-29 = test system: HT-29
UACC-257 = test system: UACC-257
MDA-N = test system: MDA-N
NCI-H460 = test system: NCI-H460
MCF7 = test system: MCF7
TK-10 = test system: TK-10
M14 = test system: M14
SK-MEL-28 = test system: SK-MEL-28
SW-620 = test system: SW-620
ACHN = test system: ACHN
OVCAR-5 = test system: OVCAR-5
HCT-116 = test system: HCT-116
COLO 205 = test system: COLO 205
U-251 = test system: U-251
786-0 = test system: 786-0
IGROV-1 = test system: IGROV-1
NCI-H23 = test system: NCI-H23
KM12 = test system: KM12
DU-145 = test system: DU-145
PC-3 = test system: PC-3
SNB-19 = test system: SNB-19
BT-549 = test system: BT-549

With `CCOC(=O)C(C#N)C1=CC(=O)C(=O)c2ccc(O)cc21` (stereo not given) the GI50 (SK-MEL-5) was 42.7 µM (inactive), the GI50 (Hs-578T) was 17.2 µM (inactive) and the GI50 (SK-MEL-2) was 23.2 µM (inactive). For the same compound, the GI50 (CCRF-CEM) was > 100 µM (inactive), the GI50 (SF-268) was > 100 µM (inactive) and the GI50 (NCI-H522) was 26.9 µM (inactive). For the same compound, the GI50 (MDA-MB-435) was 21.1 µM (inactive), the GI50 (HCC 2998) was > 100 µM (inactive) and the GI50 (OVCAR-3) was 64 µM (inactive). For the same compound, the GI50 (RXF 393) was > 100 µM (inactive), the GI50 (SK-OV-3) was > 100 µM (inactive) and the GI50 (HCT-15) was > 100 µM. For the same compound, the GI50 (SF-295) was 90.6 µM (inactive), the GI50 (EKVX) was > 100 µM (inactive) and the GI50 (HOP-62) was > 100 µM (inactive). For the same compound, the GI50 (MDA-MB-231) was 32.1 µM (inactive), the GI50 (RPMI-8226) was > 100 µM (inactive) and the GI50 (MOLT-4) was > 100 µM (inactive). For the same compound, the GI50 (SF-539) was 55.3 µM (inactive), the GI50 (K562) was > 100 µM (inactive) and the GI50 (UO-31) was 30.5 µM (inactive). For the same compound, the GI50 (A549) was > 100 µM (inactive), the GI50 (NCI/ADR-RES) was > 100 µM (inactive) and the GI50 (OVCAR-8) was 44.7 µM (inactive). For the same compound, the GI50 (LOX IMVI) was 36.7 µM (inactive), the GI50 (CAKI-1) was > 100 µM (inactive) and the GI50 (A498) was > 100 µM (inactive). The GI50 (NCI-H226) was 41.2 µM (inactive), the GI50 (SN12C) was > 100 µM (inactive) and the GI50 (UACC-62) was 17.1 µM (inactive). The GI50 (SNB-75) was 51.1 µM (inactive), the GI50 (SR) was > 100 µM (inactive) and the GI50 (Malme-3M) was 47 µM (inactive). For the same compound, the GI50 (OVCAR-4) was 58.9 µM (inactive), the GI50 (T47D) was 79.4 µM (inactive) and the GI50 (HL-60) was > 100 µM (inactive). For the same compound, the GI50 (HT-29) was > 100 µM (inactive), the GI50 (UACC-257) was 31.9 µM (inactive) and the GI50 (MDA-N) was 18.5 µM (inactive). The GI50 (NCI-H460) was > 100 µM (inactive), the GI50 (MCF7) was > 100 µM (inactive) and the GI50 (TK-10) was > 100 µM (inactive). For the same compound, the GI50 (M14) was 20.9 µM (inactive), the GI50 (SK-MEL-28) was > 100 µM (inactive) and the GI50 (SW-620) was 77.4 µM (inactive). For the same compound, the GI50 (ACHN) was 42.3 µM (inactive), the GI50 (OVCAR-5) was > 100 µM (inactive) and the GI50 (HCT-116) was 55.1 µM (inactive). The GI50 (COLO 205) was > 100 µM (inactive), the GI50 (U-251) was 48.5 µM (inactive) and the GI50 (786-0) was > 100 µM (inactive). The GI50 (IGROV-1) was 78 µM (inactive), the GI50 (NCI-H23) was 19.3 µM (inactive) and the GI50 (KM12) was > 100 µM (inactive). For the same compound, the GI50 (DU-145) was > 100 µM (inactive), the GI50 (PC-3) was > 100 µM (inactive) and the GI50 (SNB-19) was > 100 µM (inactive).
For `C/C=C1\NC(=O)[C@H](Cc2ccccc2)NC(=O)[C@@H](C(C)C)NC(=O)[C@@H]([C@@H](C)CC)NC(=O)[C@H](NC(=O)[C@H](NC(=O)[C@H](CCCN)NC(=O)[C@H]2CCCN2C(=O)[C@H](NC(=O)[C@@H](NC(=O)[C@@H](NC(=O)[C@H](NC(=O)CCCC(C)C)C(C)C)[C@@H](C)O)C(C)C)C(C)C)[C@@H](C)CC)[C@@H](C)OC(=O)[C@H](C(C)C)NC1=O`, the GI50 (SK-MEL-5) was 0.456 µM (active), the GI50 (SK-MEL-2) was 2.31 µM (inactive) and the GI50 (CCRF-CEM) was 2.86 µM (inactive). The GI50 (SF-268) was 1.42 µM (inactive), the GI50 (BT-549) was 3.44 µM (inactive) and the GI50 (NCI-H522) was 3.71 µM (inactive). For the same compound, the GI50 (MDA-MB-435) was 1.14 µM (inactive), the GI50 (OVCAR-3) was 1.36 µM (inactive) and the GI50 (RXF 393) was 3.1 µM (inactive). The GI50 (SF-295) was 1.69 µM (inactive), the GI50 (EKVX) was 0.265 µM (active) and the GI50 (HOP-62) was 1.76 µM (inactive). For the same compound, the GI50 (MOLT-4) was 12.1 µM (inactive), the GI50 (SF-539) was 1.69 µM (inactive) and the GI50 (K562) was 3.59 µM (inactive). The GI50 (UO-31) was 2.1 µM (inactive), the GI50 (NCI/ADR-RES) was 3.04 µM (inactive) and the GI50 (OVCAR-8) was 4.63 µM (inactive). For the same compound, the GI50 (LOX IMVI) was 3.64 µM (inactive), the GI50 (NCI-H226) was 2.23 µM (inactive) and the GI50 (SN12C) was 2.64 µM (inactive). The GI50 (UACC-62) was 1.42 µM (inactive), the GI50 (SR) was 14.4 µM (inactive) and the GI50 (Malme-3M) was 2 µM (inactive). The GI50 (OVCAR-4) was 0.863 µM (active), the GI50 (HL-60) was 39.4 µM (inactive) and the GI50 (NCI-H460) was 1.52 µM (inactive). For the same compound, the GI50 (MCF7) was 0.461 µM (active), the GI50 (TK-10) was 1.85 µM (inactive) and the GI50 (M14) was 1.38 µM (inactive). For the same compound, the GI50 (SK-MEL-28) was 1.5 µM (inactive), the GI50 (SW-620) was 0.344 µM (active) and the GI50 (OVCAR-5) was 1.63 µM (inactive). The GI50 (U-251) was 0.344 µM (active), the GI50 (786-0) was 1.74 µM (inactive) and the GI50 (IGROV-1) was 1.44 µM (inactive). For the same compound, the GI50 (NCI-H23) was 4.2 µM (inactive) and the GI50 (SNB-19) was 0.347 µM (active).
